Reference: publication PMC10154330, “Machine learning-driven multifunctional peptide engineering for sustained ocular drug delivery” (Nature Communications, 2023)
Values after ≈ are worked out from the molar mass of the structure shown.

Legend:
[1] = system: melanin nanoparticles (mNPs); test: In vitro melanin binding assay (binding capacity and Kd, RED device, HPLC); set-up: species or system Sepia officinalis; conditions: binding capacity and dissociation constant of ocular drugs, melanin
Description: The solutions (400 µL) were then mixed thoroughly with 400 µL of 1 mg/mL mNPs in pH 6.5 PBS solution and transferred to the inner reservoir of the rapid equilibrium dialysis (RED) device inserts (8 K MWCO). The outer reservoir was filled with 800 µL of pH 6.5 PBS solution. The samples were incubated on an orbital shaker with temperature control at 37 °C and 300 rpm for 48 h (n = 3). The solutions from outer reservoir (free drug) were than collected and transferred to an autosampler vial for HPLC analysis (Prominence LC2030, Shimadzu, Columbia, MD) with photodiode-array detection (PDA) system. […] The amount of bound drug was used to calculate the binding capacity (mol drug/mg melanin) and the dissociation constant (Kd) as previously described[20],[34].

intraocular pressure = test: IOP measurement in normotensive Dutch Belted rabbits; format: in vivo; conditions: for cumulative IOP change: Brimonidine group
Description: (§1) For the IOP measurements in normotensive rabbits, Dutch Belted rabbits (2–3 kg) were used (n = 5). IOP was measured with a hand-held rebound tonometer icareTONOVET (Vantaa, Finland) in the awake and gently restrained rabbit. Each rabbit was acclimatized to the IOP measurement procedure for at least 5 days to obtain a stable background IOP reading. A mean of three IOP measurements for an individual eye were taken every other day for 6 days (3 times in total) and used as a baseline value. For the ICM injection procedure, rabbits were anesthetized with ketamine/xylazine and received topical anesthesia with 0.5% proparacaine hydrochloride. A corneal pre-puncture was performed with a 30 G needle, followed with a single bolus ICM injection of 200 µg (mass of brimonidine) of HR97-brimonidine or brimonidine tartrate solution in 100 µL saline using a 28 G needle. After the procedure, topical bacitracin-neomycin-polymyxin ophthalmic ointment was applied to both eyes to prevent infection and dry eyes. On day 7, an ophthalmologist masked to treatment evaluate the HR97-brimonidine injected eyes with the following items: functionality of lids, lashes, conjunctiva, cornea transparency, pigmentation of corneal endothelium, depth of anterior chambers, inflammation, fibrin strands, and symmetry of the lens[113]. […] In a separate study, a corneal pre-puncture was performed with a 30 G needle, followed with a single bolus ICM injection of 200 µg (mass of brimonidine) containing a physical mixture of unconjugated HR97 and brimonidine tartrate (HR97 + brimonidine), the equivalent amount of HR97 peptide alone, or saline alone in 100 µL saline. On day 7, day 14, day 21, and day 28, an ophthalmologist masked to treatment performed the same safety evaluations described above. IOP was measured on days 2, 3, 4, 5, 6, 7, 8, 10, 12, 14, 16, 18, and 20 after the ICM injection, and change in IOP from the baseline (ΔIOP) was reported. The mean of three IOP measurements was taken for each eye by one observer, and then confirmed by a masked observer. Alternatively, a single topical eye drop (Alphagan® P 0.1%, 50 µL) was given (n = 5). The IOP were measured immediately before the topical dosing (0 h), and at 2, 4, 6 and 8 h after the eyedrop administration. For the pharmacokinetics studies, rabbits (n = 4 per group) received a single ICM injection with 200 µg (mass of brimonidine) HR97-brimonidine as described above. Rabbits were sacrificed 1, 7, 14, 28 days after the injection, and iris, aqueous, and retina were collected for measuring the brimonidine concentration.

[2] = Brimonidine in ocular tissues after ICM injection (LC-MS/MS)
Description: as §1
Brimonidine concentrations in ocular tissues were measured by liquid chromatography-tandem mass spectrometry (LC-MS/MS) as previously described. All samples were collected in pre-weighed tubes and stored at −80 °C until processing for analysis. Tissue samples were homogenized in 100–600 μL 1 × PBS using a Bullet Blender® (Next Advance, Inc, Troy, NY, USA) before extraction. Brimonidine were extracted from 15 to 50 μL of tissue homogenates with 50 μL of acetonitrile containing 50/50/2.5 ng/mL of the internal standards. The top layer was then transferred to an autosampler vial for LC-MS/MS analysis after centrifugation. All ocular tissue samples were analyzed using a 1 × PBS standard curve for brimonidine. […] The column effluent was monitored using a 5500 mass-spectrometric detector (Sciex) using electrospray ionization operating in positive mode. The mobile phase A was water containing 0.1% formic acid and mobile phase B was acetonitrile containing 0.1% formic acid. The gradient started with mobile phase B held at 20% for 0.5 min and increased to 100% over 0.5 min; 100% mobile phase B was held for 1 min and then returned to 20% mobile phase B and allowed to equilibrate for 1 min.

[3] = system: melanin nanoparticles (mNPs); test: Relative binding of drugs to mNPs; set-up: species or system Sepia officinalis
Text: (§2) Supplementary Fig. 1 | Characterization of melanin nanoparticles (mNPs) and biotinylated-melanin
(§3) nanoparticles (b-mNPs). a Representative transmission electron microscopes (TEM) images of mNPs and b-
(§4) (black dots, n = 3 per drug group) and b-mNPs (gray squares, n = 3 per drug group). Data are shown as mean ±
(§5) (1 picture or pasted object on this page, not shown here)

[4] = system: biotinylated melanin nanoparticles (b-mNPs); test: Relative binding of drugs to b-mNPs; set-up: species or system Sepia officinalis
Text: as §2, §3, §4, §5

[5] = ref 3 of the peer review file, Acheampong et al. 2002; cited from earlier work
Text: 1.5 Brimonidine is applied as eye drops three times per day. […] Why is that? What is the required free brimonidine concentration for activity?

[6] = system: melanin nanoparticles (mNPs); test: Melanin binding assay for machine learning model validation (RED device, biotin quantitation); set-up: species or system Sepia officinalis; conditions: C-terminal biotinylated peptide 10 µM with mNPs, pH 6.5 PBS, RED 8K device, 24 h, 900 rpm; unbound peptide by fluorescence biotin quantitation; n = 4
Description: The mNPs were mixed with C-terminal biotinylated peptides (10 µM) in pH 6.5 PBS solution and incubated in the rapid equilibrium dialysis (RED) 8 K device for 24 h on an orbital shaker at 900 rpm. A total of 10 µL of the solution from the rapid dialysis reservoir was collected. The concentration of unbound biotinylated peptides was analyzed with the Pierce™ Fluorescence Biotin Quantitation Kit. Four sets of melanin binding assays were performed. Melanin binding was calculated as the difference in free peptide normalized with the starting peptide concentration. Experimental melanin binding values of the 127 peptide candidates were compared with the predicted melanin binding values with the Pearson correlation. Melanin binding predictions larger than 100% were cast to 100% because this was the maximum value in the melanin binding training set.

[7] = system: melanin-induced ARPE-19 cells; test: Cell-penetration (cell uptake) assay, melanin-induced ARPE-19; format: cell-based, human; conditions: C-terminal biotinylated peptide 100 µM in pH 6.5 PBS, 6 h, 37 °C, 5 PBS washes, RIPA lysis, fluorescence biotin quantitation, n = 3
Description: Three 96 well plates per ARPE19 cell type group (melanin-induced or non-melanin induced) were seeded at 0.01 × 10^6 cells/well. ARPE-19 cells were either cultured with DMEM:F12 medium containing 10% FBS according to protocol provided by the vendor (non-melanin induced) or cultured in DMEM high glucose, pyruvate media with 250 µM of ferric ammonium citrate[107] for 2 months (melanin-induced)[20]. The expression of melanin was confirmed visually with bright field microscopy and by measuring absorbance at 475 nm (>0.4 arb. units)[20]. Within each plate, 12 wells were randomly selected to quantify the cell numbers with an automated cell counter (Countess 3 Automated Cell Counter, Thermo Fisher) for normalization in the cell uptake study. […] To quantify cell-associated peptides, the cells were lysed with 100 µL of RIPA lysis buffer at 4 °C for 48 h. The concentration of intracellular biotinylated peptides was analyzed with the Pierce™ Fluorescence Biotin Quantitation Kit. The mean intracellular concentration values of the three replicates were then grouped by cell types (melanin-induced or non-melanin induced), and a two-tailed Mann–Whitney U (Wilcoxon rank-sum) test was calculated using the wilcox.test function in R. The intracellular concentration values were also plotted against experimental melanin binding. […]

For `Brc1c(NC2=NCCN2)ccc2nccnc12` [brimonidine], the “Binding Capacity (mole/mg melanin)” value [1] was 5e-8 mole/mg melanin, the Kd [1] was 5.27 µM and the “cumulative IOP change” value (intraocular pressure; rabbit 1, sex printed Female) was 3.583. For the same molecule, the “cumulative IOP change” value (intraocular pressure; rabbit 2, sex printed Male) was -9.917, the “cumulative IOP change” value (intraocular pressure; rabbit 3, sex printed Female) was 9.167 and the “cumulative IOP change” value (intraocular pressure; rabbit 4, sex printed Male) was 13.75. The “cumulative IOP change” value (intraocular pressure; rabbit 5, sex printed Female) was 2.667, the “peak ΔIOP at 2 days” value (intraocular pressure; single ICM injection, 200 µg brimonidine equivalent, n = 5) was −2.6 ± 1.65 mmHg and the “time for the mean ΔIOP to return to baseline” value (intraocular pressure; single ICM injection, n = 5 per group) was 8 days. For the same molecule, the “brimonidine levels in eye tissues, Iris” value ([2]; 1 days, sample 1 (Male)) was 11376.8, the “brimonidine levels in eye tissues, Iris” value ([2]; 1 days, sample 2 (Male)) was 47581.5 and the “brimonidine levels in eye tissues, Iris” value ([2]; 1 days, sample 3 (Female)) was 23310.4. The “brimonidine levels in eye tissues, Iris” value ([2]; 7 days, sample 1 (Female)) was 2210.2, the “brimonidine levels in eye tissues, Iris” value ([2]; 7 days, sample 2 (Female)) was 5336.3 and the “brimonidine levels in eye tissues, Iris” value ([2]; 7 days, sample 3 (Male)) was 10576.6. The “brimonidine levels in eye tissues, Iris” value ([2]; 7 days, sample 4 (Male)) was 7554.5, the “brimonidine levels in eye tissues, Iris” value ([2]; 14 days, sample 1 (Female)) was 3473.6 and the “brimonidine levels in eye tissues, Iris” value ([2]; 14 days, sample 2 (Female)) was 5226.5. The “brimonidine levels in eye tissues, Iris” value ([2]; 14 days, sample 3 (Male)) was 4493.7, the “brimonidine levels in eye tissues, Iris” value ([2]; 14 days, sample 4 (Male)) was 711.1 and the “brimonidine levels in eye tissues, Iris” value ([2]; 28 days, sample 1 (Male)) was 1400.2. The “brimonidine levels in eye tissues, Iris” value ([2]; 28 days, sample 2 (Male)) was 859.9, the “brimonidine levels in eye tissues, Iris” value ([2]; 28 days, sample 3 (Female)) was 1137.6 and the “brimonidine levels in eye tissues, Iris” value ([2]; 28 days, sample 4 (Female)) was 522.1. For the same molecule, the “brimonidine levels in eye tissues, Retina” value (“brimonidine levels … Retina” for short) ([2]; 1 days, sample 1 (Male)) was 23.3, the “brimonidine levels … Retina” value ([2]; 1 days, sample 2 (Male)) was 64.6 and the “brimonidine levels … Retina” value ([2]; 1 days, sample 3 (Female)) was 636.9. For the same molecule, the “brimonidine levels … Retina” value ([2]; 1 days, sample 4 (Female)) was 1138.2, the “brimonidine levels … Retina” value ([2]; 7 days, sample 1 (Female)) was 14.2 and the “brimonidine levels … Retina” value ([2]; 7 days, sample 2 (Female)) was 4.9. The “brimonidine levels … Retina” value ([2]; 7 days, sample 3 (Male)) was 125.6, the “brimonidine levels … Retina” value ([2]; 7 days, sample 4 (Male)) was 19.8 and the “brimonidine levels … Retina” value ([2]; 14 days, sample 1 (Female)) was 33.2. For the same molecule, the “brimonidine levels … Retina” value ([2]; 14 days, sample 2 (Female)) was 7.4, the “brimonidine levels … Retina” value ([2]; 14 days, sample 3 (Male)) was 43 and the “brimonidine levels … Retina” value ([2]; 14 days, sample 4 (Male)) was 14.8. The “brimonidine levels … Retina” value ([2]; 28 days, sample 1 (Male)) was 10.7, the “brimonidine levels … Retina” value ([2]; 28 days, sample 2 (Male)) was 7.9 and the “brimonidine levels … Retina” value ([2]; 28 days, sample 3 (Female)) was 8.6. For the same molecule, the “brimonidine levels … Retina” value ([2]; 28 days, sample 4 (Female)) was 5.8, the “Relative binding of drugs to mNPs” value ([3]; replicate 1 of n = 3) was 141.911 and the “Relative binding of drugs to mNPs” value ([3]; replicate 2 of n = 3) was 83.4707. The “Relative binding of drugs to mNPs” value ([3]; replicate 3 of n = 3) was 74.618, the “Relative binding of drugs to b-mNPs” value ([4]; replicate 1 of n = 3) was 84.2618 and the “Relative binding of drugs to b-mNPs” value ([4]; replicate 2 of n = 3) was 102.105. The “Relative binding of drugs to b-mNPs” value ([4]; replicate 3 of n = 3) was 167.093 and the “EC50 in the aqueous humor” value [5] was 2.9 ng/mL (≈ 9.93 nM).

For YGRKKRRQRRR [TAT47–57], the “melanin binding (bound fraction)” value [6] was 77.6 ± 1.5% and the “cell uptake (intracellular peptide concentration)” value [7] was 457.1 ± 34.2 pmol/100 K cells.
